Measured values from patent US20150352108A1, “AMINO-PYRIMIDINE COMPOUNDS AS INHIBITORS OF TBK1 AND/OR IKK EPSILON” (Alzheimer's Institute of America, priority 2009, published 2015).
Like-named read-outs stand apart in the source and are kept apart here.

What was measured:
IKKε = biological target: T1, IKKε (Homo sapiens, UniProt Q14164); assay: In-vitro IKKε kinase assay ([γ33]ATP filter-plate); type: biochemical
T1 construct: His-tag; made in house; host or cells: Sf9 insect cells
T1 sequence (Q14164 1-716): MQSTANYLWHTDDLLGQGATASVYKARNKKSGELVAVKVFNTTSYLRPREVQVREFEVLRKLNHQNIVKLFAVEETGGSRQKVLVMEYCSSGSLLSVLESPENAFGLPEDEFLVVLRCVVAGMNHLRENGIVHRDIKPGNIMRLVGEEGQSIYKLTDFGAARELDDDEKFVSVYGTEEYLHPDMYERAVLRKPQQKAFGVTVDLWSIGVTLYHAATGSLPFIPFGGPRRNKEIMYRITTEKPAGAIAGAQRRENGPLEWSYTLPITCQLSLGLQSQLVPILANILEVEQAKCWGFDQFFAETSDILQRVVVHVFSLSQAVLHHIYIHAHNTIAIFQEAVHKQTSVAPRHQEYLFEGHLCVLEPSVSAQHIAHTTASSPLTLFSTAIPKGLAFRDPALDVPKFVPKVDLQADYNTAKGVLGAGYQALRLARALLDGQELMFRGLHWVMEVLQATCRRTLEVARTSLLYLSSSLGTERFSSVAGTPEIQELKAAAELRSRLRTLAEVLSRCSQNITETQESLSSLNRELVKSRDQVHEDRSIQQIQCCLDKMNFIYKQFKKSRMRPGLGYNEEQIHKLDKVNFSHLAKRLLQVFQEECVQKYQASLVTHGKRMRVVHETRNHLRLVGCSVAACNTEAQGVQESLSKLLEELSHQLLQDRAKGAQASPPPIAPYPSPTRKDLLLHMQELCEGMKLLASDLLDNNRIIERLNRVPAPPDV
Method in brief: (§1)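 Phosphorylation of casein or myelin basic protein was counted by P-81 filter capture after 30-45 min reactions stopped with phosphoric acid, with counts normalized to DMSO after background subtraction. ATP was twice Km: 60 μM for TBK1 and 32 μM for IKKε, plus [γ33]ATP. Sf9-expressed His-tag enzymes were used at normal/sensitized levels of 0.1/0.02 μg/ml (TBK1) and 0.1/0.015 μg/ml (IKKε).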

TBK1 = biological target: T2, TBK1 (Homo sapiens, UniProt Q9UHD2); assay: In-vitro TBK1 kinase assay ([γ33]ATP filter-plate); type: biochemical
T2 construct: His-tag; made in house; host or cells: Sf9 insect cells
T2 sequence (Q9UHD2 1-729): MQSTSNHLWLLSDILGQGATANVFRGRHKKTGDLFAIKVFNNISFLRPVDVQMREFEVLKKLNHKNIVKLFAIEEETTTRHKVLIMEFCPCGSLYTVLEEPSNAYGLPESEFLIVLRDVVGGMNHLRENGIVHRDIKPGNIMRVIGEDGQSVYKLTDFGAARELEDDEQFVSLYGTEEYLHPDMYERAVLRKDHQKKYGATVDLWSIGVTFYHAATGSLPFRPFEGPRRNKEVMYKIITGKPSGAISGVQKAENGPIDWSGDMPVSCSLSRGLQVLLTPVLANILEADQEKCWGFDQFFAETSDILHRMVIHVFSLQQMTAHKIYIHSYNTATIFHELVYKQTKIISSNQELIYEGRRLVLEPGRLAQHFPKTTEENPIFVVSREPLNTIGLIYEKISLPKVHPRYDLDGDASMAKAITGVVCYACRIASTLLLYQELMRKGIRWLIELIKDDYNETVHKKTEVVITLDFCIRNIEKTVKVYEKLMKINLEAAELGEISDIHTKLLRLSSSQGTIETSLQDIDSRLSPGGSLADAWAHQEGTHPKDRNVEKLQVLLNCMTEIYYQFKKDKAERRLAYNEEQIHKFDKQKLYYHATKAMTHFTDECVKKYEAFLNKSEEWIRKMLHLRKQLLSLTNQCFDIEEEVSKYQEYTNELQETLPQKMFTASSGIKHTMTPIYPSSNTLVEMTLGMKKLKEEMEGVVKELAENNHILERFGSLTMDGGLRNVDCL
Method in brief: as §1

[1] = text bins, read-out: IC50 for inhibition of the kinase activity of IKKε
[2] = text bins, read-out: IC50 for inhibition of the kinase activity of TBK1

SMILES	IC50 (IKKε; [1]) [nM]	IC50 (TBK1; [2]) [nM]	IC50 (IKKε; Table 3, read-out: IKKε IC50) [nM]	IC50 (TBK1; Table 3, read-out: TBK1 IC50) [nM]
N#Cc1cccc(-c2ccnc(Nc3ccc4[nH]ncc4c3)n2)c1 [compound 387, 3-[2-(1H-Indazol-5-ylamino)pyrimidin-4-yl]benzonitrile]	5 to 50	100 to 500		
C[C@H](O)C(=O)N1CCC(Oc2ccc(-c3ccnc(Nc4ccc(CN5CCOCC5)cc4)n3)cc2C#N)CC1 [compound 509, 2-({1-[(2S)-2-hydroxypropanoyl]piperidin-4-yl}oxy)-5-(2-{[4-(morpholin-4-ylmethyl)phenyl]amino}pyrimidin-4-yl)benzonitrile]	5 to 50	< 10		
COc1ccc(-c2ccnc(Nc3cc(CN(C)CC(=O)N(C)C)c(OC)c(OC)c3)n2)cc1C#N [Example 115, N~2~-(5-{[4-(3-Cyano-4-methoxyphenyl)pyrimidin-2-yl]amino}-2,3-dimethoxybenzyl)-N,N,N~2~- trimethylglycinamide]	< 5	10 to 100		
COC(=O)c1ccc(Nc2nccc(-c3ccc(OC4CCN(C(=O)[C@H](C)O)CC4)c(C#N)c3)n2)cc1OC [compound 324, methyl 4-({4-[3-cyano-4-({1-[(2S)-2-hydroxypropanoyl]piperidin-4-yl}oxy)phenyl]pyrimidin-2-yl}amino)-2-methoxybenzoate]	5 to 50	10 to 100		
COc1cc(Nc2nccc(-c3ccc(OC)c(C#N)c3)n2)cc(OCCN2CCOCC2)c1 [Example 138, 2-Methoxy-5-[2-({3-methoxy-5-[2-(morpholin-4-yl)ethoxy]phenyl}amino)pyrimidin-4-yl]benzonitrile]	5 to 50	10 to 100		
N#Cc1cc(-c2ccnc(Nc3ccc(N4CCOCC4)cc3)n2)ccc1OCC[C@H]1CCCCN1C(=O)CO [compound 448, 2-{2-[(2R)-1-(hydroxyacetyl)piperidin-2-yl]ethoxy}-5-(2-{[4-(morpholin-4-yl)phenyl]amino}pyrimidin-4-yl)benzonitrile]	50 to 500	10 to 100		
COc1ccc(-c2ccnc(Nc3ccc(CN(C)C)cc3)n2)cc1C#N [Example 45, 5-[2-({4-[(Dimethylamino)methyl]phenyl}amino)pyrimidin-4-yl]-2-methoxybenzonitrile]	50 to 500	10 to 100		
CCN(CC)CCN(CC)C(=O)Cc1ccc(Nc2nccc(-c3ccc(NC(=O)C(C)C)c(C#N)c3)n2)cc1 [compound 425, N-[2-cyano-4-(2-{[4-(2-{[2-(diethylamino)ethyl] (ethyl)amino}-2-oxoethyl)phenyl]amino}pyrimidin-4-yl)phenyl]-2-methylpropanamide]	5 to 50	< 10		
COCCNC(=O)c1ccc(Nc2nccc(-c3ccc(OCC4CC4)c(C#N)c3)n2)cc1 [compound 666]	< 5	< 10		
CN(C)C(=O)CN(C)c1ccc(Nc2nccc(-c3ccc(OC4CCOCC4)c(C#N)c3)n2)cc1 [Example 82, N~2~-[4-({4-[3-cyano-4-(tetrahydro-2H-pyran-4-yloxy)phenyl]pyrimidin-2-yl}amino)phenyl]-N,N,N~2~- trimethylglycinamide]	< 5	< 10		
COc1cc(NC(=O)c2cccnc2)cc(Nc2nccc(-c3ccc(OC)c(C#N)c3)n2)c1 [compound 356, N-(3-{[4-(3-Cyano-4-methoxyphenyl)pyrimidin-2-yl]amino}-5-methoxyphenyl) pyridine-3-carboxamide]	5 to 50	10 to 100		
CC(C)C(=O)Nc1ccc(-c2ccnc(Nc3cccc(CC(=O)N4CCOCC4)c3)n2)cc1C#N [compound 421, N-{2-cyano-4-[2-({3-[2-(morpholin-4-yl)-2-oxoethyl]phenyl}amino)pyrimidin-4-yl]phenyl}-2-methylpropanamide]	5 to 50	10 to 100		
COc1ccc(-c2ccnc(Nc3ccc(N4CCNC(=O)C4)c(OC)c3)n2)cc1C#N [compound 370, 2-Methoxy-5-(2-{[3-methoxy-4-(3-oxopiperazin-1-yl)phenyl]amino}pyrimidin-4-yl)benzonitrile]	< 5	< 10		
COc1cc(Nc2nccc(-c3ccc(O)c(C#N)c3)n2)ccc1N1CCNC(=O)C1 [compound 326, 2-Hydroxy-5-(2-{[3-methoxy-4-(3-oxopiperazin-1-yl)phenyl]amino}pyrimidin-4-yl)benzonitrile]	< 5	< 10		
N#Cc1cc(-c2ccnc(Nc3ccc(N4CCOCC4)cc3)n2)ccc1O[C@@H]1CCNC1 [compound 470, 5-(2-{[4-(morpholin-4-yl)phenyl]amino}pyrimidin-4-yl)-2-[(3R)-pyrrolidin-3-yloxy]benzonitrile]	5 to 50	< 10		
COc1cc(Nc2nccc(-c3ccc(OC4CCN(C(=O)[C@H](C)O)C4)c(C#N)c3)n2)ccc1N1CCOCC1 (stereo partly drawn) [Example 116, 2-({1-[(2S)-2-hydroxypropanoyl]pyrrolidin-3-yl}oxy)-5-(2-{[3-methoxy-4-(morpholin-4-yl)phenyl]amino}pyrimidin-4-yl)benzonitrile]	5 to 50	< 10		
N#Cc1cc(-c2ccnc(Nc3ccc(N4CCOCC4)cc3)n2)ccc1OC1CCN(C=O)C1 (stereo not shown) [Example 187, 2-[(1-formylpyrrolidin-3-yl)oxy]-5-(2-{[4-(morpholin-4-yl)phenyl]amino}pyrimidin-4-yl)benzonitrile]	5 to 50	< 10		
N#Cc1cc(-c2ccnc(Nc3ccc4ncsc4c3)n2)ccc1OC1CCOCC1 [Example 16, 5-[2-(1,3-benzothiazol-6-ylamino)pyrimidin-4-yl]-2-(tetrahydro-2H-pyran-4-yloxy)benzonitrile]	< 5	< 10		
COc1cc(C#N)cc(-c2ccnc(Nc3ccc(OC)c(OC)c3)n2)c1 [Example 172, 3-{2-[(3,4-Dimethoxyphenyl)amino]pyrimidin-4-yl}-5-methoxybenzonitrile]	5 to 50	10 to 100		
CN(C)CC(=O)Nc1ccc(Nc2nccc(-c3cccc(C#N)c3)n2)cc1 [Example 183]	50 to 500	10 to 100		
COc1cc(NC(=O)NCCO)cc(Nc2nccc(-c3ccc(OC4CCN(C(C)=O)CC4)c(C#N)c3)n2)c1 [compound 380]	5 to 50	10 to 100		
Cc1ccc(Nc2nccc(-c3ccc(OC4CCOCC4)c(C#N)c3)n2)cc1N1CCOCC1 [compound 590, 5-(2-{[4-Methyl-3-(morpholin-4-yl)phenyl]amino}pyrimidin-4-yl)-2-(tetrahydro-2H-pyran-4-yloxy)benzonitrile]	< 5	< 10	0.3	1.2
COc1ccc(-c2ccnc(Nc3cccc(NC(=O)N4CC[C@@H](O)C4)c3)n2)cc1C#N [compound 372, (3R)-N-(3-{[4-(3-Cyano-4-methoxyphenyl)pyrimidin-2-yl]amino}phenyl)-3-hydroxypyrrolidine-1-carboxamide]	5 to 50	10 to 100		
N#Cc1cc(-c2ccnc(Nc3ccc(N4CCOCC4)cc3)n2)ccc1OCCN [Example 220, 2-(2-aminoethoxy)-5-(2-{[4-(morpholin-4-yl)phenyl]amino}pyrimidin-4-yl)benzonitrile]	5 to 50	< 10		
COc1ccc(Nc2nccc(-c3ccc(C)c(C#N)c3)n2)cc1OC [Example 85, 5-{2-[(3,4-Dimethoxyphenyl)amino]pyrimidin-4-yl}-2-methylbenzonitrile]	5 to 50	10 to 100		
